The assay has as its target human PAI-1 (Homo sapiens, UniProt P05121). The assay is described as follows: Assay for determining the IC50 of inhibition of PAI-1 (active PAI-1 bound to tPA-coated plate, antibody detection). The class given is biochemical. The settings on record: inhibition of Plasminogen Activator Inhibitor-1; test compounds 1-50 μM incubated with human PAI-1 (50 ng/ml), pH 7.5, human tPA-coated plate. How it is done: This assay is based upon the non-SDS dissociable interaction between tPA and active PAI-1. Assay plates are initially coated with human tPA (10 μg/ml). Test compounds are dissolved in DMSO at 10 mM, then diluted with physiologic buffer (pH 7.5) to a final concentration of 1-50 μM. The test compounds are incubated with human PAI-1 (50 ng/ml) for 15 minutes at room temperature. The tPA-coated plate is washed with a solution of 0.05% Tween 20 and 0.1% BSA, then the plate is blocked with a solution of 3% BSA. An aliquot of the test compound/PAI-1 solution is then added to the tPA-coated plate, incubated at room temperature for 1 hour, and washed. Active PAI-1 bound to the plate is assessed by adding an aliquot of a 1:1000 dilution of the 33B8 monoclonal antibody against human PAI-1, and incubating the plate at room temperature for 1 hour (Molecular Innovations, Royal Oak, Mich.). The plate is again washed, and a solution of goat anti-mouse IgG-alkaline phosphatase conjugate is added at a 1:50,000 dilution in goat serum. The plate is incubated 30 minutes at room temperature, washed, and a solution of alkaline phosphatase substrate is added. The plate is incubated 45 minutes at room temperature, and color development is determined at OD405 nm. The quantitation of active PAI-1 bound to tPA at varying concentrations of the test compound is used to determine the IC50. Results are analyzed using a logarithmic best-fit equation. The assay sensitivity is 5 ng/mi of human PAI-1 as determined from a standard curve ranging from 0-100 ng/ml.

We go through six compounds from patent publication US20050215626A1, “Substituted benzofuran oximes” (WYETH, priority 2003, published 2005).

Molecules are shown by their SMILES.

As a reminder, the IC50 is the concentration at which inhibition is half-maximal. A low value points to inhibition by little substance.

human PAI-1, sequence (P05121 24-402): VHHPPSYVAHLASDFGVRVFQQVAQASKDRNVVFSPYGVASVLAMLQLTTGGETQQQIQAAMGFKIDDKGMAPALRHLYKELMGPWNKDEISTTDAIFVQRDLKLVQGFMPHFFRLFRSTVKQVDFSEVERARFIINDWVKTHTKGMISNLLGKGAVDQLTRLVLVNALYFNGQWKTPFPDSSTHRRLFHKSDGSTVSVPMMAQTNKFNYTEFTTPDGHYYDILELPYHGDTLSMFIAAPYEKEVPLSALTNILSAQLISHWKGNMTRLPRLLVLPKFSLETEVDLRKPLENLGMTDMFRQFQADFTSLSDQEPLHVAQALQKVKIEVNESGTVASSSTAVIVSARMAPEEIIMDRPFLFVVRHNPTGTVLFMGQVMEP

`CCCCc1oc2ccccc2c1/C=N/OCCCOc1ccc(C(=O)O)c(NC(=O)c2ccc(C(C)(C)C)cc2)c1` [Compound 1, 4-[3-({[(1E)-(2-butyl-1-benzofuran-3-yl)methylidene]amino}oxy)propoxy]-2-[(4-tert-butylbenzoyl)amino]-benzoic acid] gave a half-maximal inhibitory concentration (IC50) of 44.4 µM.
In the case of `CCCCc1oc2ccccc2c1/C=N/OCCCOc1ccc(CC(=O)O)cc1` [Compound 2, {4-[3-({[(1E)-(2-butyl-1-benzofuran-3-yl)methylidene]amino}oxy)propoxy]phenyl}acetic acid], half-maximal inhibition (IC50) was put at 31.4 µM.
The same measure for `CCCCc1oc2ccccc2c1/C=N/OCCCOc1ccc(C(=O)O)c(O)c1` [Compound 3, 4-[3({[(1E)-(2-butyl-1-benzofuran-3-yl)methylidene]amino}oxy)propoxy]-2-hydroxybenzoic acid]: 19.2 µM; for `CCCCc1oc2ccccc2c1/C=N/OCCOc1ccc(C(=O)O)cc1Cl` [Compound 4, 4-[2-({[(1E)-(2-butyl-1-benzofuran-3-yl)methylidene]amino]oxy)ethoxy]-3-chlorobenzoic acid]: 24.8 µM; for `CCCCc1oc2ccccc2c1/C=N/OCc1ccc(C(=O)O)c(Br)c1` [Compound 5, 2-bromo-4-[({[(1E)-(2-butyl-1-benzofuran-3-yl)methylidene]amino}oxy)methyl]benzoic acid]: 29.2 µM.
The same measure for `CCCCc1oc2ccccc2c1/C=N/OCCCOc1ccc(C(=O)O)cc1-c1ccc(C(F)(F)F)cc1` [Compound 6, 6-[3-({[(1E)-(2-butyl-1-benzofuran-3-yl)methylidene]amino}oxy)propoxy]-4′-(trifluoromethyl)-1,1′-biphenyl-3-carboxylic acid]: 17.5 µM.
